Experimental data as given in patent publication US12448389B2, “BRM targeting compounds and associated methods of use” (Prelude Therapeutics Incorporated, priority 2020, dated 2025).
Values belong to the molecule of their own block, whether it stands above or below them.

Legend:
SMARCA2-HiBiT = target: T1, SMARCA2-HiBiT (Homo sapiens, UniProt P51531); assay: SMARCA2 HiBiT degradation assay in HeLa cells; type: cell-based; conditions: 18 hours incubation; for DC50: read-out: HeLa_HiBit-SM2 DC50; for Dmax: HeLa, read-out: HeLa-HiBit-SM2 Dmax (%)
T1 construct: SMARCA2-HiBiT knock-in Hela monoclonal cell (CS302366); host or cells: HeLa monoclonal knock-in line (CRISPR HiBiT knock-in at the endogenous locus, heterozygous)
Outline: (§1)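 HeLa monoclonal lines with heterozygous HiBiT knock-in were seeded at 2500 cells/well in EMEM with 10% FBS and treated with compound for 18 h at 37 °C. Remaining tagged protein was measured by Nano-Glo HiBiT lytic luminescence after 30–60 min at RT, and values came from curve fitting.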

SMARCA4-HiBiT = target: T2, SMARCA4-HiBiT (Homo sapiens, UniProt P51532); assay: SMARCA4 HiBiT degradation assay in HeLa cells; type: cell-based; conditions: 18 hours incubation; for DC50: read-out: HeLa-HiBit-SM4 DC50; for Dmax: HeLa, read-out: HeLa-HiBit-SM4 Dmax (%)
T2 construct: SMARCA4-HiBiT knock-in Hela monoclonal cell (CS3023226); host or cells: HeLa monoclonal knock-in line (CRISPR HiBiT knock-in at the endogenous locus, heterozygous)
Outline: as §1

T1 sequence (P51531 whole entry): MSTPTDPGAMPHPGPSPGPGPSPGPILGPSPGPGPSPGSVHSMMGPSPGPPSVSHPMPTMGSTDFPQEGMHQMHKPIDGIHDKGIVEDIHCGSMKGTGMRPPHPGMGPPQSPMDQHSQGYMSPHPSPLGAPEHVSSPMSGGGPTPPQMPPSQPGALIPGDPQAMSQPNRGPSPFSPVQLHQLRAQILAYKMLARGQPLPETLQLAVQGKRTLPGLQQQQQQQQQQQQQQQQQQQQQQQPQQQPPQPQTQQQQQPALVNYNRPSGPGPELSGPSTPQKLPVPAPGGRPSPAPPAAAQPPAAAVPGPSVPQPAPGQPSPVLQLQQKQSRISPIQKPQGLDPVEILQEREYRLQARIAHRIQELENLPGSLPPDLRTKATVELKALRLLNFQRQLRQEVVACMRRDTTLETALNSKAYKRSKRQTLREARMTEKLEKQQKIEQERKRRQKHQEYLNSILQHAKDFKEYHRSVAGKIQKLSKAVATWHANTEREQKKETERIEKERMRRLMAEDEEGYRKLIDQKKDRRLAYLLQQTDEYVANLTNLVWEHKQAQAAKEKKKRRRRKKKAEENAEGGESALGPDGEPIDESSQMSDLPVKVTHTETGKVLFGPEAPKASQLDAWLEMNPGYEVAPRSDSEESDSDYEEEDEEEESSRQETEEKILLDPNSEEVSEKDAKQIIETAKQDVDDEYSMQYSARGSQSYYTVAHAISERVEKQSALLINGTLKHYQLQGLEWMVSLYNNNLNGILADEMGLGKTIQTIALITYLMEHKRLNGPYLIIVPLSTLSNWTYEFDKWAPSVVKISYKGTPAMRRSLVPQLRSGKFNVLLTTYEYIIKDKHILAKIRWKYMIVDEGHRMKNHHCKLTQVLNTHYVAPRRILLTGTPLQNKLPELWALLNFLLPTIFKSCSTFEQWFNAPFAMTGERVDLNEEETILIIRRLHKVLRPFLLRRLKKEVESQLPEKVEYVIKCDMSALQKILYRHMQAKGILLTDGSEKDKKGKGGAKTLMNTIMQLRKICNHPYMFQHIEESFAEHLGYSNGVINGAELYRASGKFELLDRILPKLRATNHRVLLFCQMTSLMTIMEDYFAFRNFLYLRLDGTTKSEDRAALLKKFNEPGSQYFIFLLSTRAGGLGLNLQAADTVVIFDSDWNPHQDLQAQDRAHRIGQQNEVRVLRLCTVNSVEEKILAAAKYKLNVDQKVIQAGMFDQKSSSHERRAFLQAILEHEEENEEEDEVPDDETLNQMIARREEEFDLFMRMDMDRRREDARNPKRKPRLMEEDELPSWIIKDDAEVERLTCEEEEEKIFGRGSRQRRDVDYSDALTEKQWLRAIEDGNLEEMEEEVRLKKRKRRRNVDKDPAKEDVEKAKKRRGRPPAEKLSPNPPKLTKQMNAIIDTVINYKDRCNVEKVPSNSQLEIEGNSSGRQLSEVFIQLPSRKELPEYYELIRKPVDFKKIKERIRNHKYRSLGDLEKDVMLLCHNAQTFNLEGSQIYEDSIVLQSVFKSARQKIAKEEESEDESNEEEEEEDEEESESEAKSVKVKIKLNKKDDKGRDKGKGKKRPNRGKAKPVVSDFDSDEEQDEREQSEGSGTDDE
T2 sequence (P51532 whole entry): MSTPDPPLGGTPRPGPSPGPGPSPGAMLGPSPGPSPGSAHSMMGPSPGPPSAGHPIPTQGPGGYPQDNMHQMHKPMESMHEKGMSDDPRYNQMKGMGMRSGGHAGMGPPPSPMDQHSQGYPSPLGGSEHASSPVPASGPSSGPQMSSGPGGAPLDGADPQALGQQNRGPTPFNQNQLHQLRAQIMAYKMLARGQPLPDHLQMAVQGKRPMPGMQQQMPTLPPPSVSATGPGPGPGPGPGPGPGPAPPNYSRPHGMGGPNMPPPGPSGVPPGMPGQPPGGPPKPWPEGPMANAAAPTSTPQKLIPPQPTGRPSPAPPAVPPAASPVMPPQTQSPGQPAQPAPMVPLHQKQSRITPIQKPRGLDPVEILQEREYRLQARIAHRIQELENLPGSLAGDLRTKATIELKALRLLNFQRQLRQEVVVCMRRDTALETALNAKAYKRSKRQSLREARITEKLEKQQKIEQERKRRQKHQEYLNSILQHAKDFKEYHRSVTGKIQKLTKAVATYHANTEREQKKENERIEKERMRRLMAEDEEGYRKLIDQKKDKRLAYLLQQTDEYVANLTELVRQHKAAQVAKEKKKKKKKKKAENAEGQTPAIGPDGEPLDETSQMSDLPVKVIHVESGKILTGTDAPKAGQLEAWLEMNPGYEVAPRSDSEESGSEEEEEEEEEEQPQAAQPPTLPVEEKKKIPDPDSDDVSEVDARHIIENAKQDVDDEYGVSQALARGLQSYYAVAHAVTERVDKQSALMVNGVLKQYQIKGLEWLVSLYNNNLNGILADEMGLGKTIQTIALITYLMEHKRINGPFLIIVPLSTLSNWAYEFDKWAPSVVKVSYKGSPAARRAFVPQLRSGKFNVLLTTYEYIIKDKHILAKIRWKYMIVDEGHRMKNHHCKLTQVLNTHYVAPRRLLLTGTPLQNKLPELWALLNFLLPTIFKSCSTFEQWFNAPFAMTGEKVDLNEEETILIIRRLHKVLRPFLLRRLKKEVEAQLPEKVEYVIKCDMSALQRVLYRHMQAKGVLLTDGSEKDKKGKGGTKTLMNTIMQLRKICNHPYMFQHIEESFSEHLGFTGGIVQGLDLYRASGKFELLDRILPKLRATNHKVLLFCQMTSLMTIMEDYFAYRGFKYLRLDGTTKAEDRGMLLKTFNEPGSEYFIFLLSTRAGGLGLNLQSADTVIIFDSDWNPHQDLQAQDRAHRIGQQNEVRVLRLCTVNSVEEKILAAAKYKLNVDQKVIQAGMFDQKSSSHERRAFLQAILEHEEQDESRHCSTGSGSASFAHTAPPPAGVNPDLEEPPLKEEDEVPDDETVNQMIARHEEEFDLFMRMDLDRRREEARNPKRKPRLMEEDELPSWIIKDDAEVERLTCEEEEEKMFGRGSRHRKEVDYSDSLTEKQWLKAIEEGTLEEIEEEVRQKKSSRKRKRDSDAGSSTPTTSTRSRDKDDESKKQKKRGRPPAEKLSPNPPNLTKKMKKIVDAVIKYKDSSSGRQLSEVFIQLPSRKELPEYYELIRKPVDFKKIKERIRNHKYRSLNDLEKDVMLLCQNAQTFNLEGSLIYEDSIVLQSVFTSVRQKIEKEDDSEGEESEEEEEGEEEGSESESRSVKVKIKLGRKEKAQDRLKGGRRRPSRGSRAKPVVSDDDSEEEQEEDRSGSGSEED

Compound: O=C1CCC(N2Cc3cc(N4CCC(CN5CCC(OC(=O)N6CCN7c8cc(-c9ccccc9O)nnc8NC[C@H]7C6)CC5)CC4)ccc3C2=O)C(=O)N1 (stereo partly drawn) [Example 83, 1-((1-(2-(2,6-dioxopiperidin-3-yl)-1-oxoisoindolin-5-yl)piperidin-4-yl)methyl)piperidin-4-yl (6aS)-2-(2-hydroxyphenyl)-5,6,6a,7,9,10-hexahydro-8H-pyrazino[1′,2′:4,5]pyrazino[2,3-c]pyridazine-8-carboxylate]
- DC50 (SMARCA2-HiBiT): < 10 nM
- Dmax (SMARCA2-HiBiT): > 85%
- DC50 (SMARCA4-HiBiT): < 10 nM
- Dmax (SMARCA4-HiBiT): 75 to 85%

Compound: O=C1CCC(N2Cc3ccc(N4CCC(CN5C[C@@H]6[C@H](C5)[C@H]6C(=O)N5CCN6c7cc(-c8ccccc8O)nnc7NC[C@H]6C5)CC4)cc3C2=O)C(=O)N1 (stereo partly drawn) [Example 96, 3-(6-(4-(((1R,5S,6r)-6-((S)-2-(2-hydroxyphenyl)-6,6a,7,8,9,10-hexahydro-5H-pyrazino[1′,2′:4,5]pyrazino[2,3-c]pyridazine-8-carbonyl)-3-azabicyclo[3.1.0]hexan-3-yl)methyl)piperidin-1-yl)-1-oxoisoindolin-2-yl)piperidine-2,6-dione]
- DC50 (SMARCA2-HiBiT): < 10 nM
- Dmax (SMARCA2-HiBiT): 50 to 75%
- DC50 (SMARCA4-HiBiT): 10 to 100 nM
- Dmax (SMARCA4-HiBiT): ≤ 50%

Compound: O=C1CCC(N2C(=O)c3ccc(N4CCC(F)(CN5C[C@@H]6[C@@H](CN7CCN8c9cc(-c%10ccccc%10O)nnc9NC[C@H]8C7)[C@@H]6C5)CC4)cc3C2=O)C(=O)N1 (stereo partly drawn) [Example 149, 2-(2,6-dioxopiperidin-3-yl)-5-(4-fluoro-4-(((1R,5S,6s)-6-(((S)-2-(2-hydroxyphenyl)-5,6,6a,7,9,10-hexahydro-8H-pyrazino[1′,2′:4,5]pyrazino[2,3-c]pyridazin-8-yl)methyl)-3-azabicyclo[3.1.0]hexan-3-yl)methyl)piperidin-1-yl)isoindoline-1,3-dione]
- DC50 (SMARCA2-HiBiT): < 10 nM
- Dmax (SMARCA2-HiBiT): 50 to 75%
- DC50 (SMARCA4-HiBiT): 10 to 100 nM
- Dmax (SMARCA4-HiBiT): 50 to 75%

Compound: CN1CCN(c2ccc3c(c2)C(=O)N(C2CCC(=O)NC2=O)C3=O)CC1CN1C[C@@H]2[C@H](C1)[C@H]2CN1CCN2c3cc(-c4ccccc4O)nnc3NC[C@H]2C1 (stereo partly drawn) [Example 56, 2-(2,6-dioxopiperidin-3-yl)-5-(3-(((1R,5S,6r)-6-(((S)-2-(2-hydroxyphenyl)-5,6,6a,7,9,10-hexahydro-8H-pyrazino[1′,2′:4,5]pyrazino[2,3-c]pyridazin-8-yl)methyl)-3-azabicyclo[3.1.0]hexan-3-yl)methyl)-4-methylpiperazin-1-yl)isoindoline-1,3-dione]
- DC50 (SMARCA2-HiBiT): < 10 nM
- Dmax (SMARCA2-HiBiT): 50 to 75%
- DC50 (SMARCA4-HiBiT): 10 to 100 nM
- Dmax (SMARCA4-HiBiT): 75 to 85%

Compound: CC(C1CCN(c2ccc3c(c2)C(=O)N(C2CCC(=O)NC2=O)C3=O)CC1)N1CCC(CN2CCN3c4cc(-c5ccccc5O)nnc4NCC3C2)CC1 (stereo in doubt) [Example 160, 2-(2,6-dioxopiperidin-3-yl)-5-[4-[1-[4-[[(10S)-4-(2-hydroxyphenyl)-1,5,6,8,12-pentazatricyclo[8.4.0.02,7]tetradeca-2(7),3,5-trien-12-yl]methyl]piperidin-1-yl]ethyl]piperidin-1-yl]isoindole-1,3-dione]
- DC50 (SMARCA2-HiBiT): < 10 nM
- Dmax (SMARCA2-HiBiT): 75 to 85%
- DC50 (SMARCA4-HiBiT): < 10 nM
- Dmax (SMARCA4-HiBiT): 50 to 75%

Compound: O=C1CCC(N2C(=O)c3ccc(N4CCC(CN5CCC6C(C5)C6CN5CCN6c7cc(-c8ccccc8O)nnc7NC[C@H]6C5)CC4)cc3C2=O)C(=O)N1 (stereo partly drawn) [Example 46, 2-(2,6-dioxopiperidin-3-yl)-5-(4-((7-(((S)-2-(2-hydroxyphenyl)-5,6,6a,7,9,10-hexahydro-8H-pyrazino[1′,2′:4,5]pyrazino[2,3-c]pyridazin-8-yl)methyl)-3-azabicyclo[4.1,0]heptan-3-yl)methyl)piperidin-1-yl)isoindoline-1,3-dione]
- DC50 (SMARCA2-HiBiT): < 10 nM
- Dmax (SMARCA2-HiBiT): > 85%
- DC50 (SMARCA4-HiBiT): < 10 nM
- Dmax (SMARCA4-HiBiT): > 85%

Compound: O=C1CCC(N2Cc3cc(N4CCC(CNC56CCC(C(=O)N7CCN8c9cc(-c%10ccccc%10O)nnc9NC[C@H]8C7)(CC5)CC6)CC4)ccc3C2=O)C(=O)N1 (stereo partly drawn) [Example 84, 3-(5-(4-(((4-((S)-2-(2-hydroxyphenyl)-6,6a,7,8,9,10-hexahydro-5H-pyrazino[1 ′,2′:4,5]pyrazino[2,3-c]pyridazine-8-carbonyl)bicyclo[2.2.2]octan-1-yl)amino)methyl)piperidin-1-yl)-1-oxoisoindolin-2-yl)piperidine-2,6-dione]
- DC50 (SMARCA2-HiBiT): < 10 nM
- Dmax (SMARCA2-HiBiT): > 85%
- DC50 (SMARCA4-HiBiT): < 10 nM
- Dmax (SMARCA4-HiBiT): 75 to 85%

Second part, the molecule after the results:

- DC50 (SMARCA2-HiBiT): < 10 nM
- Dmax (SMARCA2-HiBiT): > 85%
- DC50 (SMARCA4-HiBiT): < 10 nM
- Dmax (SMARCA4-HiBiT): > 85%
Compound: COC1(CN2C[C@@H]3[C@@H](CN4CCN5c6cc(-c7ccccc7O)nnc6NC[C@H]5C4)[C@@H]3C2)CCN(c2ccc3c(c2)C(=O)N(C2CCC(=O)NC2=O)C3)CC1 (stereo partly drawn) [Example 252, 3-(6-(4-(((1R,5S,6s)-6-(((S)-2-(2-hydroxyphenyl)-5,6,6a,7,9,10-hexahydro-8H-pyrazino[1′,2′:4,5]pyrazino[2,3-c]pyridazin-8-yl)methyl)-3-azabicyclo[3.1.0]hexan-3-yl)methyl)-4-methoxypiperidin-1-yl)-1-oxoisoindolin-2-yl)piperidine-2,6-dione]

- DC50 (SMARCA2-HiBiT): < 10 nM
- Dmax (SMARCA2-HiBiT): > 85%
- DC50 (SMARCA4-HiBiT): < 10 nM
- Dmax (SMARCA4-HiBiT): 75 to 85%
Compound: O=C1CCC(N2C(=O)c3ccc(N4CCC(CN5CC6CC(CN7CCN8c9cc(-c%10ccccc%10O)nnc9NC[C@H]8C7)C6C5)C(F)(F)C4)cc3C2=O)C(=O)N1 (stereo partly drawn) [Example 188, 5-[3,3-difluoro-4-[[6-[[(10S)-4-(2-hydroxyphenyl)-1,5,6,8,12-pentazatricyclo[8.4.0.02,7]tetradeca-2(7),3,5-trien-12-yl]methyl]-3-azabicyclo[3.2.0]heptan-3-yl]methyl]piperidin-1-yl]-2-(2,6-dioxopiperidin-3-yl)isoindole-1,3-dione]

- DC50 (SMARCA2-HiBiT): < 10 nM
- Dmax (SMARCA2-HiBiT): > 85%
- DC50 (SMARCA4-HiBiT): < 10 nM
- Dmax (SMARCA4-HiBiT): > 85%
Compound: CC1CC(CN2CCN3c4cc(-c5ccccc5O)nnc4NC[C@H]3C2)CCN1CC1CCN(c2ccc3c(c2)C(=O)N(C2CCC(=O)NC2=O)C3=O)CC1 (stereo partly drawn) [Example 162, 2-(2,6-dioxopiperidin-3-yl)-5-[4-[[4-[[(10S)-4-(2-hydroxyphenyl)-1,5,6,8,12-pentazatricyclo[8.4.0.02,7]tetradeca-2,4,6-trien-12-yl]methyl]-2-methylpiperidine-1-yl]methyl]piperidin-1-yl] isoindole-1,3-dione]

- DC50 (SMARCA2-HiBiT): < 10 nM
- Dmax (SMARCA2-HiBiT): > 85%
- DC50 (SMARCA4-HiBiT): < 10 nM
- Dmax (SMARCA4-HiBiT): 75 to 85%
Compound: CC1CN(CC2CCN(c3ccc4c(c3)C(=O)N(C3CCC(=O)NC3=O)C4=O)CC2)CC(C)N1C(=O)N1CCN2c3cc(-c4ccccc4O)nnc3NC[C@H]2C1 (stereo partly drawn) [Example 273, 2-(2,6-dioxopiperidin-3-yl)-5-(4-((4-((S)-2-(2-hydroxyphenyl)-6,6a,7,8,9,10-hexahydro-5H-pyrazino[1′,2′:4,5]pyrazino[2,3-c]pyridazine-8-carbonyl)-3,5-dimethylpiperazin-1-yl)methyl)piperidin-1-yl)isoindoline-1,3-dione]

- DC50 (SMARCA2-HiBiT): < 10 nM
- Dmax (SMARCA2-HiBiT): > 85%
- DC50 (SMARCA4-HiBiT): < 10 nM
- Dmax (SMARCA4-HiBiT): > 85%
Compound: C[C@@H]1C[C@H](CN2CCC(CN3CCN4c5cc(-c6ccccc6O)nnc5NC[C@H]4C3)CC2)CCN1c1ccc2c(c1)C(=O)N(C1CCC(=O)NC1=O)C2=O (stereo partly drawn) [Example 184, 2-(2,6-dioxopiperidin-3-yl)-5-[(2R,4R)-4-[[4-[[(10S)-4-(2-hydroxyphenyl)-1,5,6,8,12-pentazatricyclo[8.4.0.02,7]tetradeca-2,4,6-trien-12-yl]methyl]piperidin-1-yl]methyl]-2-methylpiperidin-1-yl]isoindole-1,3-dione]
